Results from PubChem BioAssay (NCI).
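Five compound concentrations were applied to cells in 96-well plates for 48 hours; endpoints were derived by simple linear interpolation of the resulting dose-response curve. GI50 = concentration required for 50% inhibition of growth. TGI: concentration producing complete growth inhibition.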

Tests used:
Test in all cases: NCI tumour cell line growth inhibition, 48 h
A498 renal = test system: A498 renal
HL-60(TB) leukemia = test system: HL-60(TB) leukemia
LOX IMVI melanoma = test system: LOX IMVI melanoma
MDA-MB-231 breast = test system: MDA-MB-231 breast
MDA-MB-435 = test system: MDA-MB-435
OVCAR-3 ovarian = test system: OVCAR-3 ovarian
NCI-H522 lung = test system: NCI-H522 lung
DLD-1 colon = test system: DLD-1 colon
DMS 114 small cell lung = test system: DMS 114 small cell lung
HOP-18 NSCLC = test system: HOP-18 NSCLC
M19-MEL melanoma = test system: M19-MEL melanoma
P388 leukemia = test system: P388 leukemia
SNB-78 CNS = test system: SNB-78 CNS

Row | Compound | TGI (A498 renal) [µM] | TGI (HL-60(TB) leukemia) [µM] | TGI (LOX IMVI melanoma) [µM] | TGI (MDA-MB-231 breast) [µM] | TGI (MDA-MB-435) [µM] | TGI (OVCAR-3 ovarian) [µM] | GI50 (A498 renal) [µM] | GI50 (HL-60(TB) leukemia) [µM] | GI50 (LOX IMVI melanoma) [µM] | GI50 (MDA-MB-231 breast) [µM] | GI50 (MDA-MB-435) [µM] | GI50 (NCI-H522 lung) [µM] | TGI (NCI-H522 lung) [µM] | GI50 (OVCAR-3 ovarian) [µM] | TGI (DLD-1 colon) [µM] | TGI (DMS 114 small cell lung) [µM] | TGI (HOP-18 NSCLC) [µM] | TGI (M19-MEL melanoma) [µM] | TGI (P388 leukemia) [µM] | TGI (SNB-78 CNS) [µM]
1 | O=C1OCc2cc3cc4c(cc3c(-c3ccc5c(c3)OCO5)c21)OCO4 (tested in a mixture with another compound) | > 100 | > 100 | > 100 | 15.6 | > 100 | 21.4 | – | – | – | – | – | – | – | – | – | – | – | – | – | –
2 | CN1CC(CNC(=O)OCc2ccccc2)CC2c3cccc4c3c(cn4C)CC21 (configuration not stated) | 16 | 3.85 | 3.21 | 3.28 | 3.53 | 7.79 | 3.47 | 1.91 | 1.64 | 1.65 | 1.81 | 1.73 | 3.33 | 2.63 | – | – | – | – | – | –
3 | COc1ccc(OC)c(CC(C)N)c1 (configuration not stated) | > 100 | – | > 100 | – | – | > 100 | – | – | – | – | – | – | > 100 | – | > 100 | > 100 | > 100 | > 100 | – | –
4 | COc1c(OC/C=C(\C)CCC=C(C)C)ccc2ccc(=O)oc12 | > 100 | > 100 | > 100 | > 100 | > 100 | > 100 | – | – | – | – | – | – | > 100 | – | – | – | – | – | – | –
5 | CC(C)(C)OC(=O)NC1CCC(C(C)(C)C)CC1 (configuration not stated) | > 100 | 36.1 | > 100 | – | – | > 100 | – | – | – | – | – | – | > 100 | – | > 100 | > 100 | > 100 | > 86.7 | 48.5 | > 100
6 | C=CCSSCC=C | > 100 | 46 | > 38.6 | > 100 | > 84.7 | > 100 | – | – | – | – | – | – | > 100 | – | – | – | – | – | – | –
7 | CCCC(=O)O.CCCC(=O)O.CCCC(=O)O.CCCC(=O)O.[Rh].[Rh] | 0.325 | 0.351 | 0.225 | 0.108 | – | – | 0.151 | 0.0448 | 0.104 | 0.0322 | – | – | – | – | – | – | – | – | – | –
8 | O=C1OC2CC=CC1C2 (configuration not stated) | > 100 | > 100 | > 100 | – | – | > 100 | – | – | – | – | – | – | > 100 | – | > 100 | > 100 | > 100 | > 100 | > 100 | > 100
9 | SC1CCCN(Cc2ccccc2)C1 (configuration not stated) | > 100 | > 100 | 34.7 | > 100 | > 100 | > 100 | – | – | – | – | – | – | > 100 | – | – | – | – | – | – | –
10 | O=C(/C=C/c1ccccc1)N1CCCCC1 | > 100 | > 100 | > 100 | > 100 | > 100 | > 100 | – | – | – | – | – | – | > 100 | – | – | – | – | – | – | –
11 | C=C1C(=O)OC2CC1CCC1(C)OC1CCC(C)=CCCC2(C)O (configuration not stated) | 3.52 | 2.62 | 8.71 | – | – | 9.3 | – | – | – | – | – | – | 3.69 | – | 6.12 | 9.27 | 3.37 | 11.8 | 3.06 | 26.3
